Experimental data from publication PMC8698657, “Absorption and Transport Characteristics and Mechanisms of Carnosic Acid” (Biology, 2021).
Where two headings read alike, the source gives them in different places.

Columns and labels:
[1] = cited from earlier work
[2] = system: Caco-2 cell monolayer; assay: Trans-enterocyte transport of CA in Caco-2 cell monolayer; format: in vitro ADME, human; details: CA 50–100 μM
Procedure: (§1) Caco-2 were cultured in EMEM complete medium containing 10% FBS, 1% non-essential amino acids, and 1% penicillin-streptomycin double antibody, and the culture conditions were 37 °C, 5% CO2, in a constant temperature incubator [16]. We first established non-toxic dose ranges of CA in Caco-2 cells using MTT assay. Dimethylsulfoxide (DMSO) was used as the vehicle to deliver CA to the cells. The final concentration of DMSO in all experiments was 0.1% (v/v) in cell culture media. Caco-2 cells were seeded in a 96-well plate at a cell density of 5 × 10^4 cells/mL per well, and cultured under 5% CO2 and 37 °C for 24 h. A quantity of 200 μL of medium was added to each well to obtain a series of CA solutions (concentrations of 25, 50, 75, and 100 μmoL). After 48 h of treatment, Caco-2 cells were subjected to the MTT assay as described previously. For the transport study, Caco-2 cells were seeded on the apical compartment (AP) of 12-well Transwell plates at a density of 2 × 10^5 cells/mL. The complete culture medium was added into basolateral (BL) and AP compartments. The basolateral medium was replaced every other day.
(§2) CA was dissolved in HBSS solution at 50, 75, and 100 μM. The HBSS solution containing CA combined with 0.5% Tween 80, 5 mmol/L EDTA or 5% PEG 400 was prepared. The cumulative migration (Qr), apparent permeability coefficient (Papp), and the Papp value of bi-direction transport of CA were calculated according to formulas.
(§3) The 0.5 mL […] containing different concentrations of CA was added to the AP side of the 12-well Transwell plate, and 1.5 mL HBSS solution was added to the BL side. At 0, 0.5, 1, 1.5, 2, 2.5, and 3 h, 0.2 mL medium was taken from the BL side and stored at −80 °C. The TEER value of each Transwell chamber was measured.
(§4) The cryopreserved Transwell samples were transferred to a 15 mL centrifuge tube, and any remaining liquid was fully washed using 1 mL of 50% methanol solution which was also transferred to the 15 mL centrifuge tube. The mixture was vortexed for 1 min, and 6 mL of ethyl acetate solution was added to the tube and vortexed for another 2 min. The mixture was centrifuged at 6000 rpm/min at 4 °C for 10 min. The supernatant was dried under vacuum, dissolved in 5% phosphoric acid methanol solution, and filtered through a 0.22 μm microporous membrane. The concentration of CA was determined by HPLC as described above.

[3] = as above; format: in vitro ADME, human; details: human
Procedure: as §1, §2, §3, §4

[4] = Caco-2, CA 50 μM, Average of 0.5-3.0 h

CC(C)c1cc2c(c(O)c1O)[C@@]1(C(=O)O)CCCC(C)(C)[C@@H]1CC2 [CA, Carnosic acid]
toxicity of orally administered CA ([1]; 64.3 and 90 mg/kg oral): nontoxic
circulating concentration ([1]; rats, 4 h after oral gavage): 0.39 µg/mL
main elimination route ([1]; rats, oral 64.3 ± 5.8 mg/kg): fecal excretion
overall bioavailability ([1]; rats, oral): 40–65%
permeability classification [2]: moderately permeable
Papp B→A at 0.5 h, 50 μM ([3]; Caco-2, CA 50 μM, 0.5 h): 0.12 ± 0.1 ×10⁻⁶ cm/s
efflux ratio at 0.5 h, 50 μM ([3]; Caco-2, CA 50 μM, 0.5 h): 0.42
Papp A→B at 0.5 h, 50 μM ([3]; Caco-2, CA 50 μM, 0.5 h, CA alone, read-out: Papp AP to BL): 0.28 ± 0.07 ×10⁻⁶ cm/s
Papp A→B at 0.5 h, 50 μM ([3]; Caco-2, CA 50 μM, 0.5 h, read-out: Papp AP-BL): 0.28 ± 0.07 ×10⁻⁶ cm/s
Papp B→A at 1 h, 50 μM ([3]; Caco-2, CA 50 μM, 1.0 h): 0.21 ± 0.09 ×10⁻⁶ cm/s
efflux ratio at 1 h, 50 μM ([3]; Caco-2, CA 50 μM, 1.0 h): 0.58
Papp A→B at 1 h, 50 μM ([3]; Caco-2, CA 50 μM, 1.0 h, CA alone, read-out: Papp AP to BL): 0.36 ± 0.01 ×10⁻⁶ cm/s
Papp A→B at 1 h, 50 μM ([3]; Caco-2, CA 50 μM, 1.0 h, read-out: Papp AP-BL): 0.36 ± 0.01 ×10⁻⁶ cm/s
Papp B→A at 1.5 h, 50 μM ([3]; Caco-2, CA 50 μM, 1.5 h): 0.36 ± 0.06 ×10⁻⁶ cm/s
efflux ratio at 1.5 h, 50 μM ([3]; Caco-2, CA 50 μM, 1.5 h): 0.52
Papp A→B at 1.5 h, 50 μM ([3]; Caco-2, CA 50 μM, 1.5 h, CA alone, read-out: Papp AP to BL): 0.69 ± 0.09 ×10⁻⁶ cm/s
Papp A→B at 1.5 h, 50 μM ([3]; Caco-2, CA 50 μM, 1.5 h, read-out: Papp AP-BL): 0.69 ± 0.09 ×10⁻⁶ cm/s
Papp B→A at 2 h, 50 μM ([3]; Caco-2, CA 50 μM, 2.0 h): 0.49 ± 0.07 ×10⁻⁶ cm/s
efflux ratio at 2 h, 50 μM ([3]; Caco-2, CA 50 μM, 2.0 h): 0.44
Papp A→B at 2 h, 50 μM ([3]; Caco-2, CA 50 μM, 2.0 h, CA alone, read-out: Papp AP to BL): 1.11 ± 0.04 ×10⁻⁶ cm/s
Papp A→B at 2 h, 50 μM ([3]; Caco-2, CA 50 μM, 2.0 h, read-out: Papp AP-BL): 1.11 ± 0.04 ×10⁻⁶ cm/s
Papp B→A at 2.5 h, 50 μM ([3]; Caco-2, CA 50 μM, 2.5 h): 0.56 ± 0.05 ×10⁻⁶ cm/s
efflux ratio at 2.5 h, 50 μM ([3]; Caco-2, CA 50 μM, 2.5 h): 0.98
Papp A→B at 2.5 h, 50 μM ([3]; Caco-2, CA 50 μM, 2.5 h, CA alone, read-out: Papp AP to BL): 0.57 ± 0.03 ×10⁻⁶ cm/s
Papp A→B at 2.5 h, 50 μM ([3]; Caco-2, CA 50 μM, 2.5 h, read-out: Papp AP-BL): 0.57 ± 0.03 ×10⁻⁶ cm/s
Papp B→A at 3 h, 50 μM ([3]; Caco-2, CA 50 μM, 3.0 h): 0.29 ± 0.03 ×10⁻⁶ cm/s
efflux ratio at 3 h, 50 μM ([3]; Caco-2, CA 50 μM, 3.0 h): 1.32
Papp A→B at 3 h, 50 μM ([3]; Caco-2, CA 50 μM, 3.0 h, CA alone, read-out: Papp AP to BL): 0.22 ± 0.02 ×10⁻⁶ cm/s
Papp A→B at 3 h, 50 μM ([3]; Caco-2, CA 50 μM, 3.0 h, read-out: Papp AP-BL): 0.22 ± 0.02 ×10⁻⁶ cm/s
Papp B→A at 50 μM [3, 4]: 0.33 ± 0.03 ×10⁻⁶ cm/s
efflux ratio at 50 μM [3, 4]: 0.62
Papp A→B at 50 μM ([3]; Caco-2, CA 50 μM, Average of 0.5-3.0 h, CA alone, read-out: Papp AP to BL): 0.54 ± 0.05 ×10⁻⁶ cm/s
Papp A→B at 50 μM ([3]; Caco-2, CA 50 μM, Average of 0.5-3.0 h, read-out: Papp AP-BL): 0.53 ± 0.02 ×10⁻⁶ cm/s
Papp B→A at 0.5 h, 75 μM ([3]; Caco-2, CA 75 μM, 0.5 h): 0.91 ± 0.02 ×10⁻⁶ cm/s
efflux ratio at 0.5 h, 75 μM ([3]; Caco-2, CA 75 μM, 0.5 h): 0.88
Papp A→B at 0.5 h, 75 μM ([3]; Caco-2, CA 75 μM, 0.5 h, CA alone, read-out: Papp AP to BL): 1.03 ± 0.01 ×10⁻⁶ cm/s
Papp A→B at 0.5 h, 75 μM ([3]; Caco-2, CA 75 μM, 0.5 h, read-out: Papp AP-BL): 1.03 ± 0.01 ×10⁻⁶ cm/s
Papp B→A at 1.5 h, 75 μM ([3]; Caco-2, CA 75 μM, 1.5 h): 0.79 ± 0.07 ×10⁻⁶ cm/s
efflux ratio at 1.5 h, 75 μM ([3]; Caco-2, CA 75 μM, 1.5 h): 0.95
Papp A→B at 1.5 h, 75 μM ([3]; Caco-2, CA 75 μM, 1.5 h, CA alone, read-out: Papp AP to BL): 0.83 ± 0.01 ×10⁻⁶ cm/s
Papp A→B at 1.5 h, 75 μM ([3]; Caco-2, CA 75 μM, 1.5 h, read-out: Papp AP-BL): 0.83 ± 0.01 ×10⁻⁶ cm/s
Papp B→A at 2 h, 75 μM ([3]; Caco-2, CA 75 μM, 2.0 h): 0.62 ± 0.01 ×10⁻⁶ cm/s
efflux ratio at 2 h, 75 μM ([3]; Caco-2, CA 75 μM, 2.0 h): 0.33
Papp A→B at 2 h, 75 μM ([3]; Caco-2, CA 75 μM, 2.0 h, CA alone, read-out: Papp AP to BL): 1.84 ± 0.1 ×10⁻⁶ cm/s
Papp A→B at 2 h, 75 μM ([3]; Caco-2, CA 75 μM, 2.0 h, read-out: Papp AP-BL): 1.84 ± 0.1 ×10⁻⁶ cm/s
Papp B→A at 2.5 h, 75 μM ([3]; Caco-2, CA 75 μM, 2.5 h): 0.41 ± 0.03 ×10⁻⁶ cm/s
efflux ratio at 2.5 h, 75 μM ([3]; Caco-2, CA 75 μM, 2.5 h): 0.49
